Data reported in ChEMBL document CHEMBL5257108, “Phthalazinone-based lactams and cyclic ureas as ROCK2 selective inhibitors” (Bioorg Med Chem Lett, 2023).

Columns and labels:
[1] = molecular target: Rho-associated protein kinase 1 (Homo sapiens, UniProt Q13464); experiment: Inhibition of ROCK1 (unknown origin)
[2] = molecular target: Rho-associated protein kinase 2 (Homo sapiens, UniProt O75116); experiment: Inhibition of ROCK2 (unknown origin)
Homo sapiens = species: Homo sapiens; experiment: Selectivity ratio of IC50 for inhibition of ROCK2 (unknown origin) to IC50 for inhibition of ROCK1 (unknown origin)

Rho-associated protein kinase 1, sequence (Q13464 whole entry): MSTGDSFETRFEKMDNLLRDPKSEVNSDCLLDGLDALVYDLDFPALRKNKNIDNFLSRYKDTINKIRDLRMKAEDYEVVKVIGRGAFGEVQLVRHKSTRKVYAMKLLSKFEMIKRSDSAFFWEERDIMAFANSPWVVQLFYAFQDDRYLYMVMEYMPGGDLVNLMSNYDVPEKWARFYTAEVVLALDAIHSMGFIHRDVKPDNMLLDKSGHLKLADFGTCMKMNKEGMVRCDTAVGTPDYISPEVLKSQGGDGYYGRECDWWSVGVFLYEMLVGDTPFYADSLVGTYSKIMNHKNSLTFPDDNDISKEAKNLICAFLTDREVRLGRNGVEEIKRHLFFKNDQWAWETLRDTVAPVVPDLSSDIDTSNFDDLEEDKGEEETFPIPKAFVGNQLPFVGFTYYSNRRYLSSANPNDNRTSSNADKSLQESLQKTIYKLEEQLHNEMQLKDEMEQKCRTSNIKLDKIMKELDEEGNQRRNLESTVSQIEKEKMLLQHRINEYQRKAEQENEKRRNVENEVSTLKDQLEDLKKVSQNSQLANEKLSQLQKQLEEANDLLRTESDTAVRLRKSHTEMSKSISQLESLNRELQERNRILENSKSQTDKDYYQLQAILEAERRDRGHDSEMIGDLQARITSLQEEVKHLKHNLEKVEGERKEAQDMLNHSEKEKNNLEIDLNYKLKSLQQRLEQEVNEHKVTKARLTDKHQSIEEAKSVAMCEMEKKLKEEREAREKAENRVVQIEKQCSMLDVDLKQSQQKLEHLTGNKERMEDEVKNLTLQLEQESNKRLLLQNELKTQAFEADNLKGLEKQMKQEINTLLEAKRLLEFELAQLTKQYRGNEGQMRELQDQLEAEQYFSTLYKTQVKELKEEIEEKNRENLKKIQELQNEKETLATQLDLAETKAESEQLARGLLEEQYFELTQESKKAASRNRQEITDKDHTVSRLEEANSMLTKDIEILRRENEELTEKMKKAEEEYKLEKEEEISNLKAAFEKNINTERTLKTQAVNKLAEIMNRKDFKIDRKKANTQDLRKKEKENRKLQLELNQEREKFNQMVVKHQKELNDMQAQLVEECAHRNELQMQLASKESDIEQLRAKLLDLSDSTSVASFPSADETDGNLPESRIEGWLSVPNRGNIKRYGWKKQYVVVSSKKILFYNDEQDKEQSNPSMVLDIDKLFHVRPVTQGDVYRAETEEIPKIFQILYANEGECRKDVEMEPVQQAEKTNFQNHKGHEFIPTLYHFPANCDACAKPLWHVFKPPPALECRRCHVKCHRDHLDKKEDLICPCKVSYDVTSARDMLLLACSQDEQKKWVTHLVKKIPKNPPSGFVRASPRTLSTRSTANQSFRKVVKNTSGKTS
Rho-associated protein kinase 2, sequence (O75116 whole entry): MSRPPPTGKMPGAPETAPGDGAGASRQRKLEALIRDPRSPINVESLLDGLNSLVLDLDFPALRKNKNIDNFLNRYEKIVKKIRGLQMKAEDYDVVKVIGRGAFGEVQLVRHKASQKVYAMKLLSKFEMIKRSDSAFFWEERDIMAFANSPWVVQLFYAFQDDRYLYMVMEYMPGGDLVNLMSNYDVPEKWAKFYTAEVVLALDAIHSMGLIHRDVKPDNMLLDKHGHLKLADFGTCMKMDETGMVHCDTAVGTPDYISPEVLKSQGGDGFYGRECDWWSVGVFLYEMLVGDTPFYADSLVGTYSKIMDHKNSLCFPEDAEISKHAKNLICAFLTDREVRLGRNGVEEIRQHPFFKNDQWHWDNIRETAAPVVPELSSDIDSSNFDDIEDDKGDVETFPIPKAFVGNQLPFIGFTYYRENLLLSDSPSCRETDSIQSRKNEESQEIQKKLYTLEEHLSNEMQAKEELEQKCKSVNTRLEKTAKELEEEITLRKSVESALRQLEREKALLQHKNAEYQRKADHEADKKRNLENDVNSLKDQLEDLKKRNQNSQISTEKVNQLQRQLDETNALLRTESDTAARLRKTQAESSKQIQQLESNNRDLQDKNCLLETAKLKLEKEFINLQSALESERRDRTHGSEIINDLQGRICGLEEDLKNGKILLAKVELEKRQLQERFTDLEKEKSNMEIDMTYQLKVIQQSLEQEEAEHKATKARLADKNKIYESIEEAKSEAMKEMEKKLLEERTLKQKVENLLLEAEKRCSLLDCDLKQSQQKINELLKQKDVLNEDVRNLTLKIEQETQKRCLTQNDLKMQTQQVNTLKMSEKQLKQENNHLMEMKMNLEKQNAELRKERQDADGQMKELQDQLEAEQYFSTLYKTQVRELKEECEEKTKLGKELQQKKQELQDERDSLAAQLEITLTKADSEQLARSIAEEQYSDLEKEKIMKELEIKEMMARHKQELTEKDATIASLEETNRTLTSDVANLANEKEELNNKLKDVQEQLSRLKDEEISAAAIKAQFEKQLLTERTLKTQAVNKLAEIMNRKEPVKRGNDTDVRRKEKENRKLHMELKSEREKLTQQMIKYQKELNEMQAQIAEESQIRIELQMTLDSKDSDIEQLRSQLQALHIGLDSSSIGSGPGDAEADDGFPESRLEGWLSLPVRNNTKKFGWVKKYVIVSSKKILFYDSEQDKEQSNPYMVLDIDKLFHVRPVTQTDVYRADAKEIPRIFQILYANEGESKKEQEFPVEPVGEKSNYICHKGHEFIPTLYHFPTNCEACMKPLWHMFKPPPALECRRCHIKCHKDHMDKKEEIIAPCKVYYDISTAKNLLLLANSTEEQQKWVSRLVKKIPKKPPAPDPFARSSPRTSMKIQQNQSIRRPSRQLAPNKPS

Row | SMILES | IC50 [1] [nM] | IC50 [2] [nM] | Ratio IC50 (Homo sapiens)
1 | O=C1N(c2ccccc2)CCN1c1ccc(-c2n[nH]c(=O)c3ccccc23)cc1 | 240 | 5.2 | –
2 | O=C1C(c2ccccc2)CCN1c1ccc(-c2n[nH]c(=O)c3ccccc23)cc1 (centres undefined) | > 2000 | 350 | –
3 | O=C1C(Nc2cccc(OC(F)F)c2)CCN1c1ccc(-c2n[nH]c(=O)c3ccccc23)cc1 (stereo in doubt; 22) | 200 | 2.5 | –
4 | O=C(Nc1ccc(-c2n[nH]c(=O)c3ccccc23)cc1)N1CCc2ccccc21 | – | 1 | 20
5 | O=C1N(c2ccc(-c3n[nH]c(=O)c4ccccc34)cc2)CCN1c1cccnc1 | 200 | 19 | –
6 | O=C1C(Nc2cccc(OC(F)(F)F)c2)CCN1c1ccc(-c2n[nH]c(=O)c3ccccc23)cc1 (centres undefined) | 270 | 5.6 | –
7 | CS(=O)(=O)c1cccc(NC2CCN(c3ccc(-c4n[nH]c(=O)c5ccccc45)cc3)C2=O)c1 (centres undefined) | 430 | 16 | –
8 | CC(C)Oc1cccc(NC2CCN(c3ccc(-c4n[nH]c(=O)c5ccccc45)cc3)C2=O)c1 (centres undefined) | 380 | 18 | –
9 | O=C1C(Nc2cccc(OC(F)F)c2)CCN1c1ccc(-c2n[nH]c(=O)c3ccccc23)cc1 (stereo in doubt; 21) | 990 | 15 | –
10 | O=C1CC(c2ccccc2)CN1c1ccc(-c2n[nH]c(=O)c3ccccc23)cc1 (centres undefined) | 1520 | 490 | –
11 | O=C1C(Nc2ccccc2)CCN1c1ccc(-c2n[nH]c(=O)c3ccccc23)cc1 (centres undefined) | 950 | 34 | –
12 | COc1cccc(NC2CCN(c3ccc(-c4n[nH]c(=O)c5ccccc45)cc3)C2=O)c1 (centres undefined) | 1050 | 23 | –
13 | O=C1OC(c2ccccc2)CN1c1ccc(-c2n[nH]c(=O)c3ccccc23)cc1 (centres undefined) | 230 | 60 | –
14 | Cc1nc2ccc(NC3CCN(c4ccc(-c5n[nH]c(=O)c6ccccc56)cc4)C3=O)cc2s1 (centres undefined) | 115 | 7.4 | –
15 | O=C1C(c2ccc(-c3n[nH]c(=O)c4ccccc34)cc2)CCN1c1ccccc1 (centres undefined) | > 2000 | 370 | –
16 | O=C1C(Oc2cccc(OC(F)(F)F)c2)CCN1c1ccc(-c2n[nH]c(=O)c3ccccc23)cc1 (centres undefined) | 100 | 6.3 | –
17 | O=C1N(Cc2ccccc2)CCN1c1ccc(-c2n[nH]c(=O)c3ccccc23)cc1 | > 2000 | 56 | –
18 | O=C1C(NCc2ccccc2)CCN1c1ccc(-c2n[nH]c(=O)c3ccccc23)cc1 (centres undefined) | > 2000 | 1400 | –
19 | O=C1C(NC2CCCC2)CCN1c1ccc(-c2n[nH]c(=O)c3ccccc23)cc1 (centres undefined) | > 2000 | 1770 | –
20 | O=c1[nH]nc(-c2ccc(-n3ncn(Cc4ccccc4)c3=O)cc2)c2ccccc12 | > 2000 | 300 | –
21 | O=C(Cc1ccc(-c2n[nH]c(=O)c3ccccc23)cc1)N1CCc2ccccc21 | 340 | 7 | –
22 | O=C1C(Nc2cccc(OC(F)F)c2)CCN1c1ccc(-c2n[nH]c(=O)c3ccccc23)cc1 (racemic) | 330 | 2 | –
